According to patent publication US10993933B2, “Oral dosage forms of bendamustine” (ASTELLAS DEUTSCHLAND GMBH, priority 2010, dated 2021):
Marks after values point to notes of the source that are not given here.

Legend:
[1] = Phase 1 crossover study, urine pharmacokinetics (Example 8); format: in vivo, human
Excerpt: Urine pharmacokinetic parameters of bendamustine, M3 and M4 are presented in Table 27, Table 28 and Table 29, respectively. The percentage of the dose excreted in urine unchanged was low (2.6% and 2.1% for oral and intravenous bendamustine, respectively).

[2] = Phase 1 crossover study, plasma pharmacokinetics after oral and i.v. bendamustine (Example 8)
Protocol: An open label, randomized two-way crossover study to assess the absolute bioavailability of oral bendamustine in patients with cancer was conducted to assess the absolute bioavailability of bendamustine administered as an oral formulation (example 2). Besides assessing the pharmacokinetics of bendamustine in plasma following oral and i.v. administration, a further objective was to evaluate the safety and tolerability of bendamustine following i.v. and especially oral administration of the formulation of example 2.
14 patients who were suffering from multiple myeloma, B-cell type chronic lymphocytic leukemia or advanced indolent non-Hodgkin's lymphoma were enrolled and were treated with bendamustine. […] After signing the informed consent form and following the screening period (days −21 to −2), eligible patients were assigned a patient number which was specific for each study site. Patients were randomized to receive one of the following on day 1 followed by the other on day 8: • a single oral dose of 110.2 mg (2×55.1 mg) bendamustine HCl • a single intravenous dose of 100 mg bendamustine HCl
Bendamustine was provided a) orally as capsules, a LFHC formulation (liquid-filled, hard-shell capsule) and b) intravenously as a solution after reconstituting a powder for the preparation of a solution for injection. The LFHC formulation (per capsule) was prepared from 55.1 mg bendamustine hydrochloride, 1.2 mg methylparaben, 0.12 mg […], 0.12 mg butylated hydroxytoluene, 10.9 mg ethanol and 532.56 mg CREMOPHOR RH40. The vial with powder for concentrate for solution was the marketed product in Germany (RIBOMUSTINE) which contains per vial 100 mg of bendamustine hydrochloride and mannitol as an excipient. This product was reconstituted with water for injection to a final concentration of 2.5 mg/ml of bendamustine HCl and was further diluted with 0.9% NaCl until about 500 ml before administration to the patient, in accordance with the instructions of the package insert.
Patients were admitted to the study site for 2 periods; days −1 to 2 (period 1) and days 7 to 9 (period 2). A total of 12 patients was to be randomized to receive treatment. Six patients were to receive treatment with a single oral dose of 110.2 mg (2×55.1 mg) bendamustine HCl (day 1) followed by a single intravenous dose of 100 mg bendamustine HCl (day 8) while 6 other patients were to receive treatment in the alternate order. Patients underwent a washout period of at least 7 days between treatments.
After oral and intravenous administration of bendamustine the concentration of bendamustine, as well as that of the active metabolites of bendamustine (M3 and M4), were determined in plasma and urine samples on day 1 and day 8. Patients returned to the study site for an end-of-study visit 7 to 14 days after completion of the second treatment period, or after early discharge/withdrawal. Subsequently the pharmacokinetic parameters of bendamustine and its metabolites were calculated.

[3] = Stability of an aqueous solution of bendamustine as a function of pH; conditions: pH values higher than about 5
[4] = Phase 1 crossover study, safety and tolerability (Example 8); format: in vivo, human
[5] = M4 in urine, Bendamustine HCl 100 mg intravenously, mean, n=11
[6] = M4 in urine, Bendamustine HCl 100 mg intravenously, median, n=11
[7] = M4 in urine, Bendamustine HCl 100 mg intravenously, min-max, n=11
[8] = M4 in urine, Bendamustine HCl 110.2 mg orally, mean, n=10
[9] = M4 in urine, Bendamustine HCl 110.2 mg orally, median, n=10
[10] = M4 in urine, Bendamustine HCl 110.2 mg orally, min-max, n=10
[11] = M4 in plasma, Bendamustine HCl 100 mg intravenously, mean, n=11
[12] = M4 in plasma, Bendamustine HCl 110.2 mg orally, mean, n=11
[13] = bendamustine in urine, Bendamustine HCl 100 mg intravenously, mean, n=11
[14] = bendamustine in urine, Bendamustine HCl 100 mg intravenously, median, n=11
[15] = bendamustine in urine, Bendamustine HCl 100 mg intravenously, min-max, n=11
[16] = bendamustine in urine, Bendamustine HCl 110.2 mg orally, mean, n=11
[17] = bendamustine in urine, Bendamustine HCl 110.2 mg orally, median, n=11
[18] = bendamustine in urine, Bendamustine HCl 110.2 mg orally, min-max, n=11

For `O=C(O)CCCc1nc2cc(N(CCCl)CCCl)ccc2[nH]1` [Batch M4, N-desmethylbendamustine], the “% Aeinf” value [1, 5] was 0.081%, the “% Aelast” value [1, 5] was 0.086% and the Aeinf [1, 5] was 0.071 mg. For the same molecule, the Aelast [1, 5] was 0.075 mg, the CLR [1, 5] was 1.74 L/h and the “% Aeinf” value [1, 6] was 0.045%. For the same molecule, the “% Aelast” value [1, 6] was 0.043%, the Aeinf [1, 6] was 0.039 mg and the Aelast [1, 6] was 0.038 mg. For the same molecule, the CLR [1, 6] was 1.66 L/h, the “% Aeinf” value [1, 7] was 0.0039-0.17% and the “% Aelast” value [1, 7] was 0.0028-0.21%. For the same molecule, the Aeinf [1, 7] was 0.0034 to 0.15 mg, the Aelast [1, 7] was 0.0025 to 0.18 mg and the CLR [1, 7] was 0.18 to 5.3 L/h. For the same molecule, the “% Aeinf” value [1, 8] was 0.109%, the “% Aelast” value [1, 8] was 0.113% and the Aeinf [1, 8] was 0.105 mg. The Aelast [1, 8] was 0.109 mg, the CLR [1, 8] was 2.83 L/h and the “% Aeinf” value [1, 9] was 0.104%. The “% Aelast” value [1, 9] was 0.104%, the Aeinf [1, 9] was 0.1 mg and the Aelast [1, 9] was 0.1 mg. For the same molecule, the CLR [1, 9] was 2.24 L/h, the “% Aeinf” value [1, 10] was 0.034-0.22% and the “% Aelast” value [1, 10] was 0.019-0.21%. For the same molecule, the Aeinf [1, 10] was 0.033 to 0.21 mg, the Aelast [1, 10] was 0.019 to 0.21 mg and the CLR [1, 10] was 0.78 to 7.1 L/h. The “percentage of the dose excreted in urine as metabolite” value ([1]; patients, oral administration) was 0.1%, the AUCinf [2, 11] was 42.5 ng·h/mL and the AUClast [2, 11] was 40.8 ng·h/mL. For the same molecule, the Cmax [2, 11] was 33.6 ng/mL, the t1/2 [2, 11] was 32.6 min and the tmax [2, 11] was 56.1 min. It also gave an AUCinf [2, 12] of 44.4 ng·h/mL, an AUClast [2, 12] of 42.8 ng·h/mL and a Cmax [2, 12] of 26.9 ng/mL. For the same molecule, the t1/2 [2, 12] was 30.9 min, the tmax [2, 12] was 79.5 min and the “Mean AUCinf of bendamustine relative to that of the metabolite (times higher)” value ([2]; patients, oral administration) was 88 times. For the same molecule, the “exposure relative to that of bendamustine” value ([2]; patients, oral administration) was ~1% and the “AUCinf after oral administration as % of AUCinf after intravenous administration” value ([2]; patients, 90% CI M3: 76%, 98%, M4: 77%, 102%) was 88%.

In the case of `Cn1c(CCCC(=O)O)nc2cc(N(CCCl)CCCl)ccc21` [bendamustine, 4-[5-[bis(2-chloroethyl)amino]-1-methylbenzimidazo-2-yl]butanoic acid], the “stability of an aqueous solution” value [3] is reported as “significant hydrolytic decomposition”, the “patients with at least 1 adverse event considered related to study drug” value ([4]; intravenous dose) is reported as “no patients” and the “patients with treatment-emergent adverse events” value ([4]; intravenous treatment, 100 mg) is reported as 25%. The safety and tolerability ([4]; intravenous, single dose 100 mg) was “safe and well tolerated”, the “deaths during the study” value ([4]; oral and intravenous) was “No deaths occurred” and the “patients with at least 1 adverse event considered related to study drug” value ([4]; oral dose) was 29%. The “patients with treatment-emergent adverse events” value ([4]; oral treatment, 110.2 mg) was 43%, the safety and tolerability ([4]; oral, single dose 110.2 mg) was “safe and well tolerated” and the “% Aeinf” value [1, 13] was 2.07%. The “% Aelast” value [1, 13] was 2.07%, the Aeinf [1, 13] was 1.874 mg and the Aelast [1, 13] was 1.88 mg. For the same molecule, the “% Aeinf” value [1, 14] was 1.22%, the “% Aelast” value [1, 14] was 1.23% and the Aeinf [1, 14] was 1.11 mg. The Aelast [1, 14] was 1.12 mg, the “% Aeinf” value [1, 15] was 0.27-8.8% and the “% Aelast” value [1, 15] was 0.27-8.8%. The Aeinf [1, 15] was 0.24 to 8.0 mg, the Aelast [1, 15] was 0.24 to 8.0 mg and the CLR [1, 15] was 0.06 to 1.4 L/h. The “% Aeinf” value [1, 16] was 2.64%, the “% Aelast” value [1, 16] was 2.66% and the Aeinf [1, 16] was 2.64 mg. For the same molecule, the Aelast [1, 16] was 2.66 mg, the CLR [1, 16] was 0.788 L/h and the “% Aeinf” value [1, 17] was 2.23%. For the same molecule, the “% Aelast” value [1, 17] was 2.23%, the Aeinf [1, 17] was 2.23 mg and the Aelast [1, 17] was 2.23 mg. For the same molecule, the “% Aeinf” value [1, 18] was 0.40-5.8%, the “% Aelast” value [1, 18] was 0.40-5.9% and the Aeinf [1, 18] was 0.40 to 5.8 mg. For the same molecule, the Aelast [1, 18] was 0.40 to 5.9 mg, the CLR [1, 18] was 0.18 to 2.0 L/h and the “percentage of the dose excreted in urine unchanged” value ([1]; patients, intravenous) was 2.1%. For the same molecule, the F ([2]; Bendamustine HCl 110.2 mg orally vs 100 mg intravenously, arithmetic mean, n=11) was 69.0† %, the CL/F ([2]; bendamustine in plasma, Bendamustine HCl 110.2 mg orally, mean, n=12) was 31.7 L/h and the “Mean t1/2” value ([2]; patients, intravenous administration) was “approximately 30 minutes”. For the same molecule, the “absolute bioavailability (oral versus intravenous ratio of AUCinf), geometric mean” value ([2]; patients, oral 110.2 mg LFHC (example 2) vs i.v. 100 mg, 90% CI: 55%, 78%) was 66%, the tmax ([2]; patients, oral administration) was “approximately 0.95 hours” and the “tmax, individual values” ([2]; patients, oral administration) was 15 min and 108 min. The “Mean t1/2” value ([2]; patients, oral intake) was “approximately 30 minutes” and the “Cmax after oral dosing as % of Cmax after intravenous dosing” value ([2]; patients, 90% CI: 32%, 54%) was 42%.
